Assay: Release rate of a volatile compound from a model manually replenished system (mass loss of vials through a mass-regulating barrier)
Type: physicochemical
Settings: low-density polyethylene barrier, 0.004 inch-thick; air about 1.4 m/s; substantially constant over 133 days in the laboratory (FIG. 5)
Description: Experimental release rates of a volatile compound from a model manually replenished system were measured as a function of time. Glass screw-thread sample vials with PTFE/silicone septa and open-top polypropylene caps contained the volatile liquid compound. Two different sizes of vials were employed: small 8 mL capacity (17 mm O.D. and 63 mm height) and large 40 mL capacity (28 mm O.D. and 98 mm height). The test volatile compound selected for study was dimethyldisulfide (DMDS). Duplicate samples of 5.5 mL and 30 mL of DMDS were added to the small and large vials, respectively. Then a mass-regulating barrier was placed on the top of each vial, and the open-top cap was tightly screwed to seal the vial contents. The diameters of the mass-regulating barriers for the small and large vials were 13.4 and 22.0 mm, respectively. In addition, the diameters of the openings in the caps for the small and large vials were 8.78 mm and 14.62 mm, respectively. Each vial with barrier, cap and liquid contents was then immediately weighed on an analytical balance. Next, the vials were placed in a dedicated laboratory fume hood. Ambient air with a bulk velocity of about 1.4 m/s (or 3 mph) passed over the vials. […] From these primary measurements the release rate for each […] was determined as a function of time. […]

Structure (SMILES): CSSC [DMDS, dimethyldisulfide]
- release rate: 26 mg/day
